This assay concerns the target T1, Adprt2 (Dictyostelium discoideum, UniProt Q8I7C6).
T1 construct: recombinant His-tagged, expressed and purified from bacteria
T1 sequence (Q8I7C6 1-700): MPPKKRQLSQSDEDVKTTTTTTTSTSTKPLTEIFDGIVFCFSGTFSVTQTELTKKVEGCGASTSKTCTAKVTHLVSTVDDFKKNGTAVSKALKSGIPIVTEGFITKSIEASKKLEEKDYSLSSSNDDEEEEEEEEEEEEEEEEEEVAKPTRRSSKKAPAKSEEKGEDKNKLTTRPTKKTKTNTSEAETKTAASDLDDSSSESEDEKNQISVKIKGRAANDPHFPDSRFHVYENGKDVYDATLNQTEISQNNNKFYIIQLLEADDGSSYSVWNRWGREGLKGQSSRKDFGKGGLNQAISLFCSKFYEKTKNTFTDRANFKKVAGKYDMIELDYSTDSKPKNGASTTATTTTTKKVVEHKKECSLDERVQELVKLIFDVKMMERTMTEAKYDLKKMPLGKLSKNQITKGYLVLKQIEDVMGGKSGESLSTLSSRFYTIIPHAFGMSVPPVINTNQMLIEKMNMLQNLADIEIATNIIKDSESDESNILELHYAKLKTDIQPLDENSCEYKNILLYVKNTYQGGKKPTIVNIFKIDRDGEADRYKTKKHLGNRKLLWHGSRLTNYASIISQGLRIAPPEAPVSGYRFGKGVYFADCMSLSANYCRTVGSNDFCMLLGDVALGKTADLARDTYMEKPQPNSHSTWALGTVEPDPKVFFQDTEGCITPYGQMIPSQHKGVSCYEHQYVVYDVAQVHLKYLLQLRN
The experiment in a line: auto-ADP-ribosylation, […]-NAD+, SDS-PAGE and phosphorimager. To be noted: room temperature. Type of assay: biochemical.

Where [1] appears, read: 75 uM NAD+, 100 nM 32P-NAD+, 1 uM enzyme, Tris-HCl pH 8, 2 mM MgCl2, sheared salmon sperm DNA, 30 min.

From paper PMC5622368, “Redundancy between nucleases required for homologous recombination promotes PARP inhibitor resistance in the eukaryotic model organism Dictyostelium” (Nucleic Acids Research, 2017) come the findings set out here.

Turning to `Cc1nc2c(O)cccc2c(=O)[nH]1` [NU1025], under setting [1], the “auto-ADP-ribosylation, 32P-NAD+, SDS-PAGE and phosphorimager” value (from here on “auto-ADP-ribosylation, 32P-NAD+”) is on record as “these agents inhibit auto-ribosylation of the SSB-responsive ART Adprt2”.

Regarding `CNCc1ccc(-c2[nH]c3cc(F)cc4c3c2CCNC4=O)cc1` [rucaparib], under setting [1], the “auto-ADP-ribosylation, 32P-NAD+” value is “olaparib and rucaparib are more effective at inhibiting Adprt1a than Adprt2”.

As to `NC(=O)c1ccc[n+]([C@@H]2O[C@H](COP(=O)(O)OP(=O)(O)OC[C@H]3O[C@@H](n4cnc5c(N)ncnc54)[C@H](O)[C@@H]3O)[C@@H](O)[C@H]2O)c1` [NAD+], the “auto-ADP-ribosylation, 32P-NAD+” value (75 uM NAD+ plus 100 nM 32P-NAD+ (labelled compound), pH 8, 2 mM MgCl2, sheared salmon sperm DNA) is “ADP-ribosylated species that co-migrates with recombinant Adprt1a or Adprt2 in our assays”.

Regarding `O=C(c1cc(Cc2n[nH]c(=O)c3ccccc23)ccc1F)N1CCN(C(=O)C2CC2)CC1` [olaparib], the “auto-ADP-ribosylation, 32P-NAD+” value under setting [1] was “olaparib and rucaparib are more effective at inhibiting Adprt1a than Adprt2”.
